This is an account of results in patent US20230147962A1, “FIBROBLAST ACTIVATION PROTEIN LIGANDS FOR TARGETED DELIVERY APPLICATIONS” (PHILOCHEM AG, priority 2020, published 2023).

Experiment [1] deals with T1, hFAP (Homo sapiens, UniProt Q12884).
T1 construct: made in house; host or cells: CHO cells, transient gene expression, purified from supernatant
T1 sequence (Q12884 with tags, fused parts or gaps): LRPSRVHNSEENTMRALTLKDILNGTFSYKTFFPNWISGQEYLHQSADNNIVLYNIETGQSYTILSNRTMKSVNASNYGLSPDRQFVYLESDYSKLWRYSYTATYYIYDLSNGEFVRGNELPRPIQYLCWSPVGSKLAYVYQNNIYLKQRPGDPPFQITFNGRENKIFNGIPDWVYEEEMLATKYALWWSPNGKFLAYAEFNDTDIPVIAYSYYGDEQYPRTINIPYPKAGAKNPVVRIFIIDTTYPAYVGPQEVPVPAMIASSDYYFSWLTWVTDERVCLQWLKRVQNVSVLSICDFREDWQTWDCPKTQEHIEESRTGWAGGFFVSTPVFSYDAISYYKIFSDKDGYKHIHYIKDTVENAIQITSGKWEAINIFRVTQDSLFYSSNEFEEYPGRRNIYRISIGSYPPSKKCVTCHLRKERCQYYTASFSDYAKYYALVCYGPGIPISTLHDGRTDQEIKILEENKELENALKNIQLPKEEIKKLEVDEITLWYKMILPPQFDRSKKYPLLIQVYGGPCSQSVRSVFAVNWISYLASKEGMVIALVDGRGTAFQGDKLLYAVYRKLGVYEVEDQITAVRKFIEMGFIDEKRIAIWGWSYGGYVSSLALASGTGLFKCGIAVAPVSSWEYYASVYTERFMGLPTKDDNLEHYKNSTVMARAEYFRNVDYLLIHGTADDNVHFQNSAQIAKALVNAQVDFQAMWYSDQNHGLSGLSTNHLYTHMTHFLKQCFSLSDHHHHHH
Briefly: In vitro human FAP enzyme IC50 assay (Z-Gly-Pro-AMC substrate). It is filed as biochemical. The following applies: for hFAP inhibition (in words): FIG. 17, serial dilution from 10^−6 to 10^−11 M; for IC50: 20 nM human FAP, 20 μM substrate, read-out: IC50 hFAP inhibition. The method, then: Enzymatic activity of human FAP on the Z-Gly-Pro-AMC substrate was measured at room temperature on a microtiter plate reader, monitoring the fluorescence at an excitation wavelength of 360 nm and an emission wavelength of 465 nm. The reaction mixture contained 20 μM substrate, 20 nM human FAP, assay buffer (50 mM Tris, 100 mM NaCl, 1 mM EDTA, pH=7.4) and inhibitor (ranging between 10^−6 and 10^−11 M) in a total volume of 30 μL.
Inhibitor stock solutions (200 mM) were prepared in DMSO. Immediately prior to the commencement of the experiment, the stocks were further diluted to 10^−6 M in the assay buffer, from which 1:2 serial dilutions were prepared. All measurements were done in triplicate.
The reaction mixture contained 20 μM substrate, 20 nM human FAP (constant), assay buffer (50 mM Tris, 100 mM NaCl, 1 mM EDTA, pH=7.4) and inhibitor (serial dilution from 10^−6 to 10^−11 M, 1:2) in a total volume of 20 μL.
Enzymatic activity of human FAP on the Z-Gly-Pro-AMC substrate was measured at room temperature on a microtiter plate reader, monitoring the fluorescence at an excitation wavelength of 360 nm and an emission wavelength of 465 nm. The reaction mixture contained 20 μM substrate, 20 nM human FAP (constant), assay buffer (50 mM Tris, 100 mM NaCl, 1 mM EDTA, pH=7.4) and tested compound (serial dilution from 10^−6 to 10^−11 M, 1:2) in a total volume of 20 μL.

The target in experiment [2] is T1, hFAP. Briefly: Chromatographic co-elution (PD-10) of ligand-protein complexes, hFAP. The experiment is classed as binding. The following applies: PD-10 column, hFAP 2 μM. The protocol: A PD-10 column was pre-equilibrated with assay buffer (50 mM Tris, 100 mM NaCl, 1 mM EDTA, pH=7.4) prior to the loading of the complex. Human FAP (2 μM) and fluorescein-labeled binders (6 μM) were incubated for 30 min at 37° C. in the dark. The mixture was loaded and the column was flushed using the assay buffer. The flow through was collected in 96-well plates and the fluorescence was measured immediately on a TECAN microtiter plate reader, monitoring the fluorescence at an excitation wavelength of 485 nm and an emission wavelength of 535 nm. The protein quantities were estimated by measuring the absorbance at 280 nm using a Nanodrop 2000/2000c spectrophotometer.
A PD-10 column was pre-equilibrated with assay buffer (50 mM Tris, 100 mM NaCl, 1 mM EDTA, pH=7.4) prior to the loading of the complex. A mixture of different proteins (hFAP=2 μM, mFAP=5 μM) and conjugate 15 (100 nM) were incubated and loaded on the column. The mixture was flushed using the assay buffer. The flow through was collected in 96-well plates and the fluorescence intensity was measured immediately on a TECAN microtiter plate reader, monitoring the fluorescence at an excitation wavelength of 485 nm and an emission wavelength of 535 nm. The concentration of the proteins was estimated by measuring the absorbance at 280 nm using a Nanodrop 2000/2000c spectrophotometer.

The target in experiment [3] is T1, hFAP. Briefly: Affinity measurement to human FAP by fluorescence polarization. It is filed as binding. As to conditions: binder 10 nM, read-out: KD to hFAP. The method, then:
Fluorescence polarization measurements were performed in 384-well plates (non-binding, ps, f-bottom, black, high volume, 30 μL final volume). A stock solution of human FAP (4 μM) was serially diluted with buffer (50 mM Tris, 100 mM NaCl, 1 mM EDTA, pH=7.4), while the final concentration of the binders was kept constant at 10 nM. The measurements were carried out after incubating for 30 min at 37° C. in the dark by fluorescent polarization (FIG. 4).
(§1) Fluorescence polarization experiments were performed in 384-well plates (non-binding, ps, f-bottom, black, high volume, 30 μL final volume). Stock solutions of human FAP (4 μM) and murine FAP (5 μM) were serially diluted with buffer (50 mM Tris, 100 mM NaCl, 1 mM EDTA, pH=7.4), while the final concentration of the binders was kept constant at 10 nM. The fluorescence anisotropy was measured on a TECAN microtiter plate reader. Experiments were performed in triplicate and the mean anisotropy values fitted using Prism 7.
(In general: In fluorescence polarisation assays a small probe gives low polarisation when free and higher when bound to something large.)

The target in experiment [4] is T1, hFAP. Kind of experiment: Dissociation rate measurement by fluorescence polarization. It is filed as binding. The following applies: 2.0 nM binder, 1.0 μM human FAP, 37° C., 20 μM fluorescein-free competitor. The protocol:
Fluorescence polarization measurements to determine the koff values were performed in 384-well plates (non-binding, ps, f-bottom, black, high volume, 30 μL final volume). The measurements were carried out after pre-incubation of 2.0 nM fluorescein-labelled binders with human FAP at a constant concentration of 1.0 μM at 37° C. in the dark. The dissociation of the fluorescein-labeled compound was induced by adding a large excess of the corresponding fluorescein-free binders (compound P3 obtained in Step 3 of Example 2 and compound H6 obtained in Step 6 of Comparative Example 1, respectively, each at 20 μM final concentration).

For a further experiment, the target named is T2, murine FAP (Mus musculus, UniProt P97321).
T2 sequence (P97321 1-761): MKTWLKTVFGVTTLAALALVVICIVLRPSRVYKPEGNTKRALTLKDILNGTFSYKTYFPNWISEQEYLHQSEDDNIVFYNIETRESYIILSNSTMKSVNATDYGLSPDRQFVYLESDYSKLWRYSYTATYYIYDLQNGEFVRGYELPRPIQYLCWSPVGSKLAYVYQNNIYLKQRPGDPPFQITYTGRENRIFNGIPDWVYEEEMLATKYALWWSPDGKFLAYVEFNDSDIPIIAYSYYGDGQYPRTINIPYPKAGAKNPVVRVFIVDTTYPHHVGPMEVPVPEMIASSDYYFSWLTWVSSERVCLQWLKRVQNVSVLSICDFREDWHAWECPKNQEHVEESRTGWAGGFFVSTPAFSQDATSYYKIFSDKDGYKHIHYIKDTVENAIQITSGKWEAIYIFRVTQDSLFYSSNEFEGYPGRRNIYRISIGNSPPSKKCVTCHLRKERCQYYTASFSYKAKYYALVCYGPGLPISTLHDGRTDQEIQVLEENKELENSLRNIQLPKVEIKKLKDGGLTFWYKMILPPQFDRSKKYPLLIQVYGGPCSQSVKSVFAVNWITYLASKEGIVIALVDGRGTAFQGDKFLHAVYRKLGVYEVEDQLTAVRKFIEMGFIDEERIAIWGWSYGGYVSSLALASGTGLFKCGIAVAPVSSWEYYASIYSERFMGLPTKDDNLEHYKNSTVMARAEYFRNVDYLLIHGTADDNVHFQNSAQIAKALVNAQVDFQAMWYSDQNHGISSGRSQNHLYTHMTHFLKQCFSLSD
Briefly: Affinity measurement to murine FAP by fluorescence polarization. As to conditions: binder 10 nM, read-out: KD to mFAP. The experiment is classed as binding. The protocol:
as §1

Where [5] appears, read: FIG. 5, 30 min preincubation at 37° C.

Where two headings read alike, the source gives them in different places. *1 amine or outer side, *2 acyl side, *3 side chain or, on linkers, in order; H or OH if unused. Where a SMILES comes first, the peptide text is derived from it. The star is where a group is joined. Fluorescein(5-Mal) = O=C1OC2(c3ccc(O)cc3Oc3cc(O)ccc32)c2ccc(N3C(=O)CC(*)C3=O)cc21; X2 = N#C[C@@H]1CC(F)(F)CN1C(=O)CNC(=O)c1ccnc2ccc(OCCCN3CCN(*)CC3)cc12; Suc = O=C(CCC(=O)[*:2])[*:1]

As to `COc1ccc2nccc(C(=O)NCC(=O)N3CCC[C@H]3C#N)c2c1` [Conjugate 28, (S)-N-(2-(2-cyanopyrrolidin-1-yl)-2-oxoethyl)-6-methoxyquinoline-4-carboxamide], the “hFAP inhibition (in words)” value at hFAP [1] is recorded as “lower FAP inhibition property compared with Example 2, P4”.
As for `C[C@H](NC(=O)c1ccnc(CNC(=O)CCC(=O)O)c1)C(=O)N1CC(F)(F)C[C@H]1C#N` [Conjugate 29, 4-(((4-(((S)-1-((S)-2-cyano-4,4-difluoropyrrolidin-1-yl)-1-oxopropan-2-yl)carbamoyl)pyridin-2-yl)methyl)amino)-4-oxobutanoic acid], at hFAP [1], the “hFAP inhibition (in words)” value is “does not inhibit FAP proteolytic activity at the concentrations tested in the assay”.
A word on the IC50: it is the point on the concentration scale where inhibition reaches its midpoint. For the molecule `N#C[C@@H]1CC(F)(F)CN1C(=O)CNC(=O)c1ccnc2ccc(OCCCN3CCNCC3)cc12` [Conjugate H6, (S)—N-(2-(2-cyano-4,4-difluoropyrrolidin-1-yl)-2-oxoethyl)-6-(3-(piperazin-1-yl)propoxy)quinoline-4-carboxamide], the IC50 on hFAP [1] (setting [5]) turned out to be 24.6 nM.
With `N#C[C@@H]1CC(F)(F)CN1C(=O)CNC(=O)c1ccnc2c(N)cccc12` [Conjugate P3, (S)-8-amino-N-(2-(2-cyano-4,4-difluoropyrrolidin-1-yl)-2-oxoethyl)quinoline-4-carboxamide], the IC50 at hFAP [1] (setting [5]) is 20.2 nM.
As to `N#C[C@@H]1CC(F)(F)CN1C(=O)CNC(=O)c1ccnc2c(NC(=O)CCC(=O)O)cccc12` [Conjugate P4, (S)-4-((4-((2-(2-cyano-4,4-difluoropyrrolidin-1-yl)-2-oxoethyl)carbamoyl)quinolin-8-yl)amino)-4-oxobutanoic acid], on hFAP [1] (FIG. 9, total volume 20 μL), the IC50 amounted to 16.8 nM.
As for `N#C[C@@H]1CC(F)(F)CN1C(=O)CNC(=O)c1ccnc2c(N)cccc12` [ESV6 ligand], the IC50 on hFAP [1] (setting [5]) worked out at 20.2 nM.
As a reminder, the Kd is the equilibrium constant for the complex coming apart. Take `N#C[C@@H]1CC(F)(F)CN1C(=O)CNC(=O)c1ccnc2c(NC(=O)CCC(=O)NCCOCCOCCNC(=S)Nc3ccc4c(c3)C(=O)OC43c4ccc(O)cc4Oc4cc(O)ccc43)cccc12` [ESV6-fluo, (S)—N1-(4-((2-(2-cyano-4,4-difluoropyrrolidin-1-yl)-2-oxoethyl)carbamoyl)quinolin-8-yl)-N4-(2-(2-(2-(3-(3′,6′-dihydroxy-3-oxo-3H-spiro[isobenzofuran-1,9′-xanthen]-5-yl)thioureido)ethoxy)ethoxy)ethyl)succinamide]: on hFAP [2], the “complex formation with hFAP in PD-10 co-elution” value is “stable complex is formed”. Besides, on hFAP [3], the Kd is 0.78 nM. Besides, the “dissociation from hFAP, regression coefficient” value on hFAP [4] is on record as −0.09356.
For `N#C[C@@H]1CC(F)(F)CN1C(=O)CNC(=O)c1ccnc2ccc(OCCCN3CCNCC3)cc12` [Haberkorn ligand], at hFAP [1] (setting [5]), the IC50 was 24.6 nM.
In the case of `N#C[C@@H]1CC(F)(F)CN1C(=O)CNC(=O)c1ccnc2ccc(OCCCN3CCN(C(=O)c4ccc5c(c4)C(=O)OC54c5ccc(O)cc5Oc5cc(O)ccc54)CC3)cc12` [Haberkorn-fluo, (S)—N-(2-(2-cyano-4,4-difluoropyrrolidin-1-yl)-2-oxoethyl)-6-(3-(4-(3′,6′-dihydroxy-3-oxo-3H-spiro[isobenzofuran-1,9′-xanthene]-5-carbonyl)piperazin-1-yl)propoxy)quinoline-4-carboxamide, reference compound], at hFAP [2], the “complex formation with hFAP in PD-10 co-elution” value is recorded as “stable complex is formed”. Moreover, the Kd at hFAP [3] was determined as 0.89 nM. Also, the “dissociation from hFAP, regression coefficient” value at hFAP [4] was −0.07511.
With `N#C[C@@H]1CC(F)(F)CN1C(=O)CNC(=O)c1ccnc2cc(Nc3ccccc3)ccc12` [compound 24, (S)-N-(2-(2-cyano-4,4-difluoropyrrolidin-1-yl)-2-oxoethyl)-7-(phenylamino)quinoline-4-carboxamide], the IC50 at hFAP [1] (FIG. 9, total volume 20 μL) is 33.5 nM.
On to `N#C[C@@H]1CC(F)(F)CN1C(=O)CNC(=O)c1ccnc2ccc(OCCCN3CCN(C(=O)CCC(=O)N[C@@H](CC(=O)O)C(=O)N[C@@H](CCCCN)C(=O)N[C@@H](CC(=O)O)C(=O)N[C@@H](CSC4CC(=O)N(c5ccc6c(c5)C(=O)OC65c6ccc(O)cc6Oc6cc(O)ccc65)C4=O)C(=O)O)CC3)cc12` (stereo partly shown) [conjugate 25, reference compound] ({X2-Suc}-DKDC(Fluorescein(5-Mal))-OH), for which the Kd at murine FAP was determined as 30.9 nM; at hFAP [3], 1.02 nM.
